This is an account of results in PubChem BioAssay (NCI).

Test systems include A498 renal; ACHN renal; DU-145 prostate; HCT-116 colon; IGROV1 ovarian; KM12 colon; MALME-3M melanoma; MOLT-4 leukemia; NCI-H522 lung; OVCAR-5 ovarian; OVCAR-8 ovarian; RPMI-8226 leukemia; SF-295 CNS; UO-31 renal; CCRF-CEM leukemia; HL-60(TB) leukemia; HS 578T breast; K-562 leukemia; MCF7 breast.
Common to all, as to assay: growth of human tumour cells (NCI), 48 h

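Cultured in 96-well plates, cells were exposed to test compound for 48 hours across five concentrations. TGI: concentration producing complete growth inhibition.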 Where a SMILES comes first, the peptide text is derived from it. The star is where a group is joined. OSu = O=C1CCC(=O)N1O*

With `C/C(O[Si](C(C)C)(C(C)C)C(C)C)=C(\C)C(=O)N(C)c1ccccc1Cl`, the TGI with A498 renal, with ACHN renal, with DU-145 prostate, with HCT-116 colon, in the experiment with IGROV1 ovarian and in the experiment on KM12 colon was more than 100 µM each time. Besides, the TGI in the experiment with MALME-3M melanoma, with MOLT-4 leukemia, with NCI-H522 lung, in the experiment on OVCAR-5 ovarian, with OVCAR-8 ovarian and with RPMI-8226 leukemia was more than 100 µM each time. The TGI in the experiment with SF-295 CNS and in the experiment with UO-31 renal was more than 100 µM in each case.

In the case of `CC12CCC(CC1(Cl)Cl)C2` (centres undefined), the TGI in the experiment on ACHN renal, with CCRF-CEM leukemia, with HL-60(TB) leukemia, in the experiment on HS 578T breast, in the experiment on IGROV1 ovarian and with K-562 leukemia was more than 100 µM throughout. For the same compound, the TGI with KM12 colon, in the experiment on MALME-3M melanoma, with MCF7 breast, with MOLT-4 leukemia, in the experiment with NCI-H522 lung and in the experiment on OVCAR-5 ovarian was more than 100 µM each time. The TGI with OVCAR-8 ovarian, with RPMI-8226 leukemia, in the experiment on SF-295 CNS and in the experiment with UO-31 renal was more than 100 µM each time.

As for `CC(=O)O[C@H]1C(=O)[C@@]2(C)[C@H]([C@H](OC(=O)c3ccccc3)[C@]3(O)C[C@H](OC(=O)[C@H](O)[C@@H](NC(=O)c4ccc(N(C)C)cc4)c4ccccc4)C(C)=C1C3(C)C)[C@]1(OC(C)=O)CO[C@@H]1C[C@@H]2O`, the TGI was more than 50 µM with A498 renal; more than 50 µM with ACHN renal; 2.34 µM with CCRF-CEM leukemia; more than 50 µM in the experiment on HCT-116 colon; 0.00566 µM with HL-60(TB) leukemia; 0.00632 µM with HS 578T breast. Also, the TGI in the experiment on IGROV1 ovarian was more than 50 µM; in the experiment on KM12 colon, more than 50 µM; with MCF7 breast, more than 50 µM; in the experiment with MOLT-4 leukemia, more than 21.9 µM; in the experiment on OVCAR-5 ovarian, more than 50 µM; with OVCAR-8 ovarian, more than 50 µM. Also, the figures for the TGI in the experiment with RPMI-8226 leukemia, in the experiment with SF-295 CNS and with UO-31 renal were 0.00795 µM, more than 50 µM and more than 50 µM, respectively.

With `NS(=O)(=O)c1nnc(NS(=O)(=O)c2ccc([N+](=O)[O-])cc2)s1`, the TGI with A498 renal, in the experiment with ACHN renal, in the experiment on DU-145 prostate, in the experiment on HCT-116 colon, in the experiment with HL-60(TB) leukemia and in the experiment on IGROV1 ovarian was more than 100 µM each time. The TGI with K-562 leukemia was more than 100 µM; in the experiment with KM12 colon, more than 100 µM; in the experiment with MALME-3M melanoma, more than 100 µM; with MCF7 breast, more than 100 µM; in the experiment on MOLT-4 leukemia, more than 100 µM; with NCI-H522 lung, 77.5 µM. Also, the TGI with OVCAR-5 ovarian, in the experiment with OVCAR-8 ovarian, in the experiment with RPMI-8226 leukemia, in the experiment with SF-295 CNS and in the experiment with UO-31 renal was more than 100 µM throughout.

Consider `C/C(O)=C(\C=NC(=S)c1ccncc1)C(=O)Nc1ccccc1C`, for which the TGI in the experiment on A498 renal, in the experiment with ACHN renal, in the experiment on DU-145 prostate, with HCT-116 colon, in the experiment with HL-60(TB) leukemia and in the experiment on IGROV1 ovarian was more than 100 µM each time. Also, the TGI with KM12 colon, in the experiment with MCF7 breast, in the experiment with OVCAR-5 ovarian, with OVCAR-8 ovarian, in the experiment on SF-295 CNS and with UO-31 renal was more than 100 µM each time.

On to `COC(=O)CNC(=O)CCC(C)[C@H]1CCC2C3C(C[C@H](OC(C)=O)[C@@]21C)[C@@]1(C)CCC2(C[C@H]1C[C@H]3OC(C)=O)OOC1(CCCCC1)OO2` (some centres undefined), for which the TGI in the experiment with A498 renal is 34.4 µM; in the experiment with ACHN renal, 3.85 µM; in the experiment on CCRF-CEM leukemia it was 5.02 µM; with HCT-116 colon it was 6.25 µM; with HL-60(TB) leukemia, 5.1 µM; with HS 578T breast, 6.7 µM. Moreover, the TGI in the experiment with IGROV1 ovarian stood at 2.98 µM; in the experiment with K-562 leukemia, 9.51 µM; with KM12 colon, 3.64 µM; in the experiment on MALME-3M melanoma it was 6.22 µM; in the experiment with MCF7 breast, 13.9 µM; in the experiment on MOLT-4 leukemia, 11.9 µM. Also, the TGI in the experiment on NCI-H522 lung was determined as 3.14 µM; with OVCAR-5 ovarian, 6.62 µM; in the experiment with OVCAR-8 ovarian it was 4.16 µM; with RPMI-8226 leukemia, 3.91 µM; in the experiment with SF-295 CNS, 18.4 µM; in the experiment with UO-31 renal, 3.3 µM.

Take `C[n+]1cn(-c2nc3ccccc3nc2[N-]S(=O)(=O)c2ccccc2)c2ccccc21`: the TGI in the experiment with ACHN renal, in the experiment on CCRF-CEM leukemia, in the experiment with HCT-116 colon, in the experiment with HL-60(TB) leukemia, in the experiment with HS 578T breast and in the experiment on IGROV1 ovarian was more than 100 µM throughout. Also, the TGI in the experiment with K-562 leukemia was more than 100 µM; in the experiment on KM12 colon it was more than 100 µM; in the experiment on MALME-3M melanoma, more than 100 µM; with MCF7 breast, more than 100 µM; in the experiment with MOLT-4 leukemia, more than 100 µM; with NCI-H522 lung it was 5.27 µM. The TGI with OVCAR-5 ovarian, with OVCAR-8 ovarian, with RPMI-8226 leukemia, with SF-295 CNS and in the experiment on UO-31 renal was more than 100 µM each time.

For `Cc1nc(Nc2ccc(Cl)c(Cl)c2)sc1C(=O)/C=C/c1ccc2c(c1)OCO2`, the TGI was 47.8 µM in the experiment on A498 renal; 45.1 µM in the experiment on ACHN renal; more than 100 µM with CCRF-CEM leukemia; 49.4 µM with HCT-116 colon; 43.4 µM in the experiment with HL-60(TB) leukemia; more than 100 µM in the experiment on IGROV1 ovarian. The TGI in the experiment on K-562 leukemia was 89.9 µM; with KM12 colon, 50 µM; with MALME-3M melanoma, more than 100 µM; with MCF7 breast, more than 100 µM; in the experiment on MOLT-4 leukemia, 44.1 µM; in the experiment with OVCAR-5 ovarian it was more than 100 µM. Further, the TGI amounted to 49.6 µM in the experiment with OVCAR-8 ovarian, 45.9 µM with RPMI-8226 leukemia, 45.6 µM in the experiment with SF-295 CNS and 33.7 µM in the experiment on UO-31 renal.

For the compound `C[C@H]1O[C@@H](C(C)(C)C)OC(=O)[C@@H]1C(OC(=O)c1ccccc1)c1cccc2ccccc12` (some centres undefined), the TGI in the experiment with ACHN renal, in the experiment with CCRF-CEM leukemia, in the experiment with HCT-116 colon, in the experiment on HS 578T breast, in the experiment with IGROV1 ovarian and in the experiment on K-562 leukemia was more than 100 µM each time. Also, the TGI in the experiment on KM12 colon, in the experiment on MALME-3M melanoma, in the experiment with MCF7 breast, in the experiment with MOLT-4 leukemia, in the experiment with NCI-H522 lung and with OVCAR-5 ovarian was more than 100 µM in each case. The TGI in the experiment with OVCAR-8 ovarian, in the experiment with RPMI-8226 leukemia, in the experiment on SF-295 CNS and in the experiment with UO-31 renal was more than 100 µM in each case.

Turning to `COc1ccc2c3c1OC1C(OC)(OC)CC4(C=C2)CN(C)CCC314` (centres undefined), the TGI in the experiment with A498 renal, with ACHN renal, in the experiment on CCRF-CEM leukemia, in the experiment on DU-145 prostate, with HCT-116 colon and in the experiment with HL-60(TB) leukemia was more than 100 µM throughout. Further, the TGI in the experiment on IGROV1 ovarian, in the experiment with K-562 leukemia, with KM12 colon, with MALME-3M melanoma, in the experiment on MCF7 breast and in the experiment on MOLT-4 leukemia was more than 100 µM throughout. Besides, the TGI in the experiment on OVCAR-5 ovarian, in the experiment with OVCAR-8 ovarian, in the experiment with RPMI-8226 leukemia, in the experiment with SF-295 CNS and in the experiment on UO-31 renal was more than 100 µM in each case.

In the case of `NCCCCC(NC(=O)C(N)Cc1ccc(O)cc1)C(=O)NC(Cc1ccc(O)cc1)C(=O)NC(CCCCN)C(=O)ON1C(=O)CCC1=O` (centres undefined) (H-YKYK-OSu; configuration not given here), the TGI with A498 renal, in the experiment with ACHN renal, in the experiment on HCT-116 colon, in the experiment on HL-60(TB) leukemia, with HS 578T breast and with IGROV1 ovarian was more than 100 µM in each case. Besides, the TGI with K-562 leukemia, with KM12 colon, in the experiment on MALME-3M melanoma, in the experiment with MCF7 breast, with MOLT-4 leukemia and in the experiment with OVCAR-5 ovarian was more than 100 µM throughout. Moreover, the TGI in the experiment on OVCAR-8 ovarian, in the experiment with RPMI-8226 leukemia and in the experiment with UO-31 renal was more than 100 µM in each case.

With `COc1ccc(CCN2C(=O)CC34C=CC(CC3C2=O)O4)cc1OC` (centres undefined), the TGI with A498 renal, in the experiment with ACHN renal, with CCRF-CEM leukemia, in the experiment with DU-145 prostate, with HCT-116 colon and in the experiment with HL-60(TB) leukemia was more than 100 µM throughout. Besides, the TGI in the experiment with IGROV1 ovarian, with K-562 leukemia, in the experiment with KM12 colon, in the experiment on MCF7 breast, in the experiment with MOLT-4 leukemia and in the experiment with OVCAR-5 ovarian was more than 100 µM in each case. Further, the TGI in the experiment with OVCAR-8 ovarian, in the experiment with RPMI-8226 leukemia, in the experiment with SF-295 CNS and in the experiment with UO-31 renal was more than 100 µM throughout.
